This note sets out measurements from patent US7368453B2, “Quinazolinone compounds with reduced bioaccumulation” (Chiron Corporation, priority 2003, dated 2008).

Where two headings read alike, the source gives them in different places.

The series can be described thus: Tissue half-life (t1/2) and Cmax in plasma, brain, kidney and liver after oral administration to CD-1 mice. It is filed as in vivo, mouse. The settings on record: for half-life: male, mouse. As to the method:
In vivo studies were conducted to observe the effect of the compounds of the invention in the subject animal. Male CD-1 mice, body weight of 20 grams at arrival, were used in these studies. Mice were given 30 mg/kg of compound in HPMC/Tween solution or suspension via oral gavage. Plasma, brain, and liver samples were collected at time periods of 1, 2, 4, 8, and 24 hours post dosing. One mouse was used per time point. Thus, a total of 5 mice were used for each compound tested. For sample collection, mice were euthanized with CO2. Blood samples were taken by cardiac puncture and kept on ice. Brain and liver samples were collected immediately after bleeding and the samples were kept on dry ice. For calculation of tissue half-lives (t1/2s), the terminal rate constant k was estimated by the absolute value of the slope of a log-linear regression of the terminal phase of the tissue concentration-time profile. The tissue half-life t1/2 is ln(2)/k.
The following table includes t1/2 data for plasma, brain, kidney, and liver obtained after oral administration.
Tissue Half-Life Data for Various Quinazolinone Compounds (PO)

Where [1] appears, read: liver t1/2, 30 mg/kg oral gavage (PO), read-out: Half-Lives (h) Liver (converted).
[2] abbreviates: plasma t1/2, 30 mg/kg oral gavage (PO), read-out: Half-Lives (h) Plasma (converted).
The mark [3] stands for this setting: brain t1/2, 30 mg/kg oral gavage (PO), read-out: Half-Lives (h) Brain (converted).
Setting [4] is: kidney t1/2, 30 mg/kg oral gavage (PO), read-out: Half-Lives (h) Kidney (converted).

In the case of `C[C@@H]1[C@@H](N=C(Nc2ccc3c(=O)n(CCc4ccc(Br)cc4)c(-c4cccnc4)nc3c2)N2CC(=O)N[C@@H](C)C2)C[C@H]2C[C@@H]1C2(C)C` [Example 230, (3S)-N-{3-[2-(4-bromophenyl)ethyl]-4-oxo-2-pyridin-3-yl-3,4-dihydroquinazolin-7-yl}-3-methyl-5-oxo-N′-[(1S,2S,3S,5R)-2,6,6-trimethylbicyclo[3.1.1]hept-3-yl]piperazine-1-carboximidamide], the half-life was 5.9 h under setting [1] and 3.1 h under setting [2].
Taken in the same sequence, the figures for `C[C@@H]1[C@@H](N=C(Nc2ccc3c(=O)n(CCc4ccc(F)cc4)c(-c4cnccn4)nc3c2)N2CC(=O)N[C@@H](C)C2)C[C@H]2C[C@@H]1C2(C)C` [Example 218, (3S)-N-{3-[2-(4-fluorophenyl)ethyl]-4-oxo-2-pyrazin-2-yl-3,4-dihydroquinazolin-7-yl}-3-methyl-5-oxo-N′-[(1S,2S,3S,5R)-2,6,6-trimethylbicyclo[3.1.1]hept-3-yl]piperazine-1-carboximidamide] were 3.9 h and 2.2 h.
As for `C[C@@H]1[C@@H](N=C(Nc2ccc3c(=O)n(CCc4ccc(F)cc4)c(CF)nc3c2)N2CCN[C@@H](CF)C2)C[C@H]2C[C@@H]1C2(C)C` [Example 257, (3R)-3-(fluoromethyl)-N-{2-(fluoromethyl)-3-[2-(4-fluorophenyl)ethyl]-4-oxo-3,4-dihydroquinazolin-7-yl}-N′-[(1 S,2S,3S,5R)-2,6,6-trimethylbicyclo[3.1.1]hept-3-yl]piperazine-1-carboximidamide], the half-life is, setting by setting: under setting [3], 12 h; under setting [1], 3 h; under setting [2], 20 h.
In the case of `COc1ccc(CCn2c(-c3cnccn3)nc3cc(NC(=N[C@H]4C[C@H]5C[C@@H]([C@@H]4C)C5(C)C)N4CCN[C@@H](C(F)F)C4)ccc3c2=O)c(F)c1` [Example 234, (3R)-3-(difluoromethyl)-N-{3-[2-(2-fluoro-4-methoxyphenyl)ethyl]-4-oxo-2-pyrazin-2-yl-3,4-dihydroquinazolin-7-yl}-N′-[(1S,2S,3S,5R)-2,6,6-trimethylbicyclo[3.1.1]hept-3-yl]piperazine-1-carboximidamide], the half-life under setting [3] was 2.6 h, the half-life under setting [1] is 4.9 h and the half-life under setting [2] is 3.5 h.
For the compound `COc1ccc(CCn2cnc3cc(N/C(=N/[C@H]4C[C@@H]5C[C@H]([C@@H]4C)C5(C)C)N(C)CCO)ccc3c2=O)c(F)c1` [Example 288], the half-life is, setting by setting: under setting [1], 1.2 h; under setting [2], 1.1 h.
On to `C[C@@H]1[C@@H](N=C(Nc2ccc3c(=O)n(CCc4ccc(Br)cc4)c(-c4cnccn4)nc3c2)N2CCN[C@@H](C(F)F)C2)C[C@H]2C[C@@H]1C2(C)C` [Example 231, (3R)-N-{3-[2-(4bromophenyl)ethyl]-4-oxo-2-pyrazin-2-yl-3,4-dihydroquinazolin-7-yl]-3-(difluoromethyl)-N′-[(1S,2S,3S,5R)-2,6,6-trimethylbicyclo[3.1.1]hept-3-yl]piperazine-1-carboximidamide], for which the half-life under setting [3] is 15 h, the half-life under setting [1] is 4.6 h and the half-life under setting [2] was 2.6 h.
Turning to `COc1ccc(CCn2c(-c3cccnc3)nc3cc(N/C(=N/C4C[C@H]5C[C@@H]([C@@H]4C)C5(C)C)N4CCN(C#N)[C@@H](C)C4)ccc3c2=O)c(F)c1` (stereo partly drawn) [Example 246], the half-life under setting [3] is 5.8 h, the half-life under setting [4] was 3.1 h, the half-life under setting [1] was 18 h and the half-life under setting [2] is 5.7 h.
Take `C[C@@H]1[C@@H](/N=C(/Nc2ccc3c(=O)n(CCc4ccc(Cl)cc4Cl)cnc3c2)N2CCNC(=O)C2)C[C@@H]2C[C@H]1C2(C)C` [Example 260, N-{3-[2-(2,4-dichlorophenyl)ethyl]-4-oxo-3,4-dihydroquinazolin-7-yl]-3-oxo-N′-[(1R,2S,3S,5S)-2,6,6-trimethylbicyclo[3.1.1]hept-3-yl]piperazine-1-carboximidamide]: the half-life by setting is: under setting [4], 7.3 h; under setting [2], 7.2 h.
For the compound `COc1ccc(CCn2c(-c3cccnc3)nc3cc(NC(=N[C@H]4C[C@H]5C[C@@H]([C@@H]4C)C5(C)C)N4CCN[C@@H](CF)C4)ccc3c2=O)c(F)c1` [Example 248, (3R)-N-{3-[2-(2-fluoro-4-methoxyphenyl)ethyl]-4-oxo-2-pyridin-3-yl-3,4-dihydroquinazolin-7-yl}-3-(fluoromethyl)-N′-[(1S,2S,3S,5R)-2,6,6-trimethylbicyclo[3.1.1]hept-3-yl]piperazine-1-carboximidamide], the half-life under setting [3] is 14 h, the half-life under setting [4] was 11 h, the half-life under setting [1] was 6.2 h and the half-life under setting [2] is 5.3 h.
For `COc1ccc(CCn2c(-c3cccnc3)nc3cc(N/C(=N/[C@H]4C[C@@H]5C[C@H]([C@@H]4C)C5(C)C)N4C[C@@H](C)N(C#N)[C@@H](C)C4)ccc3c2=O)c(F)c1` [Example 295], the half-life was 4.9 h under setting [3], 9.5 h under setting [1] and 3.3 h under setting [2].
For `C[C@@H]1[C@@H](/N=C(/Nc2ccc3c(=O)n(CCc4ccc(Cl)cc4Cl)cnc3c2)N2CC(O)C2)C[C@@H]2C[C@H]1C2(C)C` [Example 337, N-{3-[2-(2,4-dichlorophenyl)ethyl]-4-oxo-3,4-dihydro-7-quinazolinyl}-3-hydroxy-N′-[(1R,2S,3S,5S)-2,6,6-trimethylbicyclo[3.1.1]hept-3-yl]-1-azetidinecarboximidamide], the half-life under setting [4] is 5.1 h, the half-life under setting [1] was 4.6 h and the half-life under setting [2] was 18.9 h.
Take `COc1ccc(CCn2c(-c3cccnc3)nc3cc(NC(=N[C@H]4C[C@H]5C[C@@H]([C@@H]4C)C5(C)C)N4CCN(CC#N)[C@@H](C)C4)ccc3c2=O)c(F)c1` [Example 247, (3S)-4-(cyanomethyl)-N-{3-[2-(2-fluoro-4-methoxyphenyl)ethyl]-4-oxo-2-pyridin-3-yl-3,4-dihydroquinazolin-7-yl}-3-methyl-N′-[(1S,2S,3S,5R)-2,6,6-trimethylbicyclo[3.1.1]hept-3-yl]piperazine-1-carboximidamide]: the half-life is, setting by setting: under setting [3], 12 h; under setting [4], 11 h; under setting [1], 8 h; under setting [2], 18 h.
As to `C[C@@H]1[C@@H](N=C(Nc2ccc3c(=O)n(CCc4ccc(Br)cc4)c(-c4cccnc4)nc3c2)N2CCN[C@@H](C(F)F)C2)C[C@H]2C[C@@H]1C2(C)C` [Example 227, (3R)-N-{3-[2-(4-bromophenyl)ethyl]-4-oxo-2-pyridin-3-yl-3,4-dihydroquinazolin-7-yl}-3-(difluoromethyl)-N′-[(1S,2S,3S,5R)-2,6,6-trimethylbicyclo[3.1.1]hept-3-yl]piperazine-1-carboximidamide], the half-life by setting is: under setting [1], 9.4 h; under setting [2], 3.9 h.
Taken in the same sequence, the figures for `C[C@@H]1[C@@H](N=C(Nc2ccc3c(=O)n(CCc4ccc(Cl)cc4)c(-c4c[nH]c5ccccc45)nc3c2)N2CC(=O)N[C@@H](C)C2)C[C@H]2C[C@@H]1C2(C)C` [Example 236, (3S)-N-[3-[2-(4-chlorophenyl)ethyl]-2-(1H-indol-3-yl)-4-oxo-3,4-dihydroquinazolin-7-yl]-3-methyl-5-oxo-N′-[(1S,2S,3S,5R)-2,6,6-trimethylbicyclo[3.1.1]hept-3-yl]piperazine-1-carboximidamide] were 4.2 h and 7.7 h.
Take `C[C@@H]1[C@@H](N=C(Nc2ccc3c(=O)n(CCc4ccc(Cl)cc4)c(-c4cnccn4)nc3c2)N2CC(=O)N[C@@H](C)C2)C[C@H]2C[C@@H]1C2(C)C` [Example 222, (3S)-N-{3-[2-(4-chlorophenyl)ethyl]-4-oxo-2-pyrazin-2-yl-3,4-dihydroquinazolin-7-yl}-3-methyl-5-oxo-N′-[(1S,2S,3S,5R)-2,6,6-trimethylbicyclo[3.1.1]hept-3-yl]piperazine-1-carboximidamide]: the half-life by setting is: under setting [3], 8 h; under setting [1], 2.7 h; under setting [2], 1.1 h.
On to `COc1ccc(CCn2c(-c3cccnc3)nc3cc(N/C(=N/[C@H]4C[C@@H]5C[C@H]([C@@H]4C)C5(C)C)N4C[C@@H](C)N(O)[C@@H](C)C4)ccc3c2=O)c(F)c1` [Example 296, (3R,5S)-N-[3-{2-[2-fluoro-4-(methyloxy)phenyl]ethyl}-4-oxo-2-(3-pyridinyl)-3,4-dihydro-7-quinazolinyl]-4-hydroxy-3,5-dimethyl-N′-[(1R,2S,3S,5S)-2,6,6-trimethylbicyclo[3.1.1]hept-3-yl]-1-piperazinecarboximidamide], for which the half-life is 3.3 h under setting [4], 3.2 h under setting [1] and 4.9 h under setting [2].
As to `COc1ccc(CCn2c(C#N)nc3cc(NC(=NC4C[C@H]5C[C@@H]([C@@H]4C)C5(C)C)N4CCN[C@@H](CF)C4)ccc3c2=O)c(F)c1` (stereo partly drawn) [Example 256, (3R)-N-{2-cyano-3-[2-(2-fluoro-4-methoxyphenyl)ethyl]-4-oxo-3,4-dihydroquinazolin-7-yl}-3-(fluoromethyl)-N′-[(1S,2S,5R)-26,6-trimethylbicyclo[3.1.1]hept-3-yl]piperazine-1-carboximidamide], the “Half-Lives (h) Brain” value (brain t1/2, 30 mg/kg oral gavage (PO)) is given as 15 h. Also, for the setting “liver t1/2, 30 mg/kg oral gavage (PO)”, the “Half-Lives (h) Liver” value was determined as 4.3 h. The “Half-Lives (h) Plasma” value (plasma t1/2, 30 mg/kg oral gavage (PO)) amounted to 5.4 h.
